In assay [1] the target is T1, SpNOX (Streptococcus pneumoniae NOX) (Streptococcus pneumoniae, UniProt Q8CZ28).
T1 construct: gene spr0531; residues 2-400, N-terminal 6xHis-PreScission tag cleaved, E. coli C41(DE3), LMNG micelles, monomer, 46 kDa, two b-type hemes and FAD
T1 sequence (Q8CZ28 2-400): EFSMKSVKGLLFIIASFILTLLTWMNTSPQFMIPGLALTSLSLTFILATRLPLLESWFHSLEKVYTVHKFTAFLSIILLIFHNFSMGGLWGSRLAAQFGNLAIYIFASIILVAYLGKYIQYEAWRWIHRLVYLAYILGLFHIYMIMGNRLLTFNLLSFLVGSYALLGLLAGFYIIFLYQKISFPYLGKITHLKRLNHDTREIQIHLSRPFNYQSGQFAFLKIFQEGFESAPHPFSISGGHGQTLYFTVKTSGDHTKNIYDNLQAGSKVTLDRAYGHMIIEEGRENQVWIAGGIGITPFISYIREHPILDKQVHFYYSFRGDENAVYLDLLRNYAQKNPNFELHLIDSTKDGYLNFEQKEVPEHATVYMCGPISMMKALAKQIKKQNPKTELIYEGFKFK
The format is binding. To be noted: substrate-free, 1 mM FAD added; DH domain FAD site.

The target in assay [2] is T1, SpNOX (Streptococcus pneumoniae NOX). The assay is described as follows: cytochrome c reduction assay, absorbance at […] nm. The assay is classed as biochemical. Particulars: 100 µM bovine cytochrome c, 0.1 µM SpNOX, 1 µM FAD, 50 mM Tris pH 7.0, 250 mM NaCl, room temperature, aerobic; read-out: apparent KM.

Broadly, the Km is the concentration of substrate that gives half-maximal velocity.

For `Cc1cc2nc3c(=O)[nH]c(=O)nc-3n(C[C@H](O)[C@H](O)[C@H](O)COP(=O)(O)OP(=O)(O)OC[C@H]3O[C@@H](n4cnc5c(N)ncnc54)[C@H](O)[C@@H]3O)c2cc1C` [FAD], the “cryo-EM structure, 2.29 Å” value in assay [1] is “A clear density for FAD was well resolved in all maps”.
Take `NC(=O)C1=CN([C@@H]2O[C@H](COP(=O)(O)OP(=O)(O)OC[C@H]3O[C@@H](n4cnc5c(N)ncnc54)[C@H](OP(=O)(O)O)[C@@H]3O)[C@@H](O)[C@H]2O)C=CC1` [NADPH]: the Km in assay [2] was found to be 7.59 µM.

The values are drawn from paper PMC11564096, “Structural and mechanistic insights into Streptococcus pneumoniae NADPH oxidase” (Nature Structural & Molecular Biology, 2024).
